# Test results reported in patent US10570149B2, “Tricyclic heterocylic derivatives” (MERCK PATENT GMBH, priority 2016, dated 2020).
# Where two headings read alike, the source gives them in different places.
# Assays:
# ATR/ATRIP = molecular target: T1, ATR/ATRIP (Homo sapiens, UniProt Q13535); test: ATR/ATRIP kinase assay (TR-FRET, p53 phosphorylation); type: biochemical
# T1 construct: human ATR, full length, GenBank ID: NM_001184.3; p53: Sf21 insect cells
# Description: ATR/ATRIP Kinase Assay—Measurement of ATR/ATRIP Inhibition
# The IC50 value was determined by an ATR/ATRIP enzymatic assay. The assay comprises two steps: the enzymatic reaction and the detection step. First, a mixture of ATR/ATRIP protein (Ataxia Telangiectasia and Rad3-related protein/ATR interacting protein), the compound in question at different concentrations, p53 as substrate protein and adenosine triphosphate (ATP) are incubated in assay buffer. ATR phosphorylates p53 at Ser15 and other residues. The amount of phosphorylated p53 is then detected using specific antibodies and the TR-FRET assay technology.
# In detail: The ATR/ATRIP enzymatic assay is performed as a TR-FRET-(HTRF™, Cisbio Bioassays) based 384-well assay. In a first step, purified human recombinant ATR/ATRIP (human ATR, full length, GenBank ID: NM_001184.3, and human ATRIP, full length, GenBank ID AF451323.1, co-expressed in a mammalian cell line) is incubated in assay buffer for 15 minutes at 22° C. with test compound at different concentrations or without test compound (as a negative control). The assay buffer contains 25 mM HEPES pH 8.0, 10 mM Mg(CH3COO)2, 1 mM MnCl2, 0.1% BSA, 0.01% Brij® 35, and 5 mM dithiothreitol (DTT). […] Then, in a second step, purified human recombinant cmyc-tagged p53 (human p53, full length, GenBank ID: BC003596, expressed in Sf21 insect cells) and ATP are added and the reaction mixture is incubated for 25-35 minutes, typically 25 minutes, at 22° C. The pharmacologically relevant assay volume is 5 μl. The final concentrations in the assay during incubation of the reaction mixture are 0.3-0.5 nM, typically 0.3 nM, ATR/ATRIP, 50 nM p53, and 0.5 μM ATP. The enzymatic reaction is stopped by the addition of EDTA. […] Following signal development for 2 h the plates are analyzed in an EnVision (PerkinElmer) microplate reader using the TRF mode with laser excitation. […] Data are processed employing the Genedata Screener software. In particular, IC50 values are determined in the usual manner by fitting a dose-response curve to the data points using nonlinear regression analysis.
# [1] = tested on: phosphorylation of Chk1 (Ser 345) in HT29 colon adenocarcinoma cells; test: pCHK1 cellular assay; type: cell-based; conditions: Homo sapiens, HT-29, Table 1, class symbols, hydroxyurea
# Description: Chk1 kinase acts downstream of ATR and has a key role in DNA damage checkpoint control. Activation of Chk1 involves phosphorylation of Ser317 and Ser345 (regarded as the preferential target for phosphorylation/activation by ATR) and occurs in response to blocked DNA replication and certain forms of genotoxic stress. Phosphorylation at Ser 345 serves to localize Chk1 to the nucleus following checkpoint activation.
# This assay measures a decrease in phosphorylation of Chk1 (Ser 345) in HT29 colon adenocarcinoma cells following treatment with compound and hydroxyurea (which promotes fork stalling because of dNTP depletion) and using an immunocytochemical procedure and high content imaging.
# For the assay HT29 cells are plated in culture medium (DMEM high Glucose (no phenol red), 2 mM Glutamax, 1 mM Pyruvate, 10% FCS into Greiner 384 well plates, black, μclear #781090 (2500 cells/well/30 μl) and incubated for at least 20 hours at 37° C., 10% CO2 and 90% rH. Diluted test compounds (1 nM-30 μM final) and hydroxyurea (3 mM final) are added simultaneously and cells are incubated for 4 h at 37° C. After fixation/prmeabilisation with 100% MeOH (−20° C. cold) and permeabilisation with 0.2% Triton X-100 a complete immunocytochemical procedure is performed using a specific anti-pChk1 antibody (Cell Signaling, #2348BF) and fluorescently labelled secondary antibody (Alexa Fluor® 488 goat anti-rabbit F(ab′)2 fragment, Invitrogen A11070) and parallel nuclear staining for cell counting.
# The nuclear localised pChk1 signal is detected on an ImageXpress Ultra confocal high content reader and reported as % positive cells (nuclei).
# [2] = Table 1, class symbols, read-out: ATR-ATRIP IC50
# T1 sequence (Q13535 whole entry): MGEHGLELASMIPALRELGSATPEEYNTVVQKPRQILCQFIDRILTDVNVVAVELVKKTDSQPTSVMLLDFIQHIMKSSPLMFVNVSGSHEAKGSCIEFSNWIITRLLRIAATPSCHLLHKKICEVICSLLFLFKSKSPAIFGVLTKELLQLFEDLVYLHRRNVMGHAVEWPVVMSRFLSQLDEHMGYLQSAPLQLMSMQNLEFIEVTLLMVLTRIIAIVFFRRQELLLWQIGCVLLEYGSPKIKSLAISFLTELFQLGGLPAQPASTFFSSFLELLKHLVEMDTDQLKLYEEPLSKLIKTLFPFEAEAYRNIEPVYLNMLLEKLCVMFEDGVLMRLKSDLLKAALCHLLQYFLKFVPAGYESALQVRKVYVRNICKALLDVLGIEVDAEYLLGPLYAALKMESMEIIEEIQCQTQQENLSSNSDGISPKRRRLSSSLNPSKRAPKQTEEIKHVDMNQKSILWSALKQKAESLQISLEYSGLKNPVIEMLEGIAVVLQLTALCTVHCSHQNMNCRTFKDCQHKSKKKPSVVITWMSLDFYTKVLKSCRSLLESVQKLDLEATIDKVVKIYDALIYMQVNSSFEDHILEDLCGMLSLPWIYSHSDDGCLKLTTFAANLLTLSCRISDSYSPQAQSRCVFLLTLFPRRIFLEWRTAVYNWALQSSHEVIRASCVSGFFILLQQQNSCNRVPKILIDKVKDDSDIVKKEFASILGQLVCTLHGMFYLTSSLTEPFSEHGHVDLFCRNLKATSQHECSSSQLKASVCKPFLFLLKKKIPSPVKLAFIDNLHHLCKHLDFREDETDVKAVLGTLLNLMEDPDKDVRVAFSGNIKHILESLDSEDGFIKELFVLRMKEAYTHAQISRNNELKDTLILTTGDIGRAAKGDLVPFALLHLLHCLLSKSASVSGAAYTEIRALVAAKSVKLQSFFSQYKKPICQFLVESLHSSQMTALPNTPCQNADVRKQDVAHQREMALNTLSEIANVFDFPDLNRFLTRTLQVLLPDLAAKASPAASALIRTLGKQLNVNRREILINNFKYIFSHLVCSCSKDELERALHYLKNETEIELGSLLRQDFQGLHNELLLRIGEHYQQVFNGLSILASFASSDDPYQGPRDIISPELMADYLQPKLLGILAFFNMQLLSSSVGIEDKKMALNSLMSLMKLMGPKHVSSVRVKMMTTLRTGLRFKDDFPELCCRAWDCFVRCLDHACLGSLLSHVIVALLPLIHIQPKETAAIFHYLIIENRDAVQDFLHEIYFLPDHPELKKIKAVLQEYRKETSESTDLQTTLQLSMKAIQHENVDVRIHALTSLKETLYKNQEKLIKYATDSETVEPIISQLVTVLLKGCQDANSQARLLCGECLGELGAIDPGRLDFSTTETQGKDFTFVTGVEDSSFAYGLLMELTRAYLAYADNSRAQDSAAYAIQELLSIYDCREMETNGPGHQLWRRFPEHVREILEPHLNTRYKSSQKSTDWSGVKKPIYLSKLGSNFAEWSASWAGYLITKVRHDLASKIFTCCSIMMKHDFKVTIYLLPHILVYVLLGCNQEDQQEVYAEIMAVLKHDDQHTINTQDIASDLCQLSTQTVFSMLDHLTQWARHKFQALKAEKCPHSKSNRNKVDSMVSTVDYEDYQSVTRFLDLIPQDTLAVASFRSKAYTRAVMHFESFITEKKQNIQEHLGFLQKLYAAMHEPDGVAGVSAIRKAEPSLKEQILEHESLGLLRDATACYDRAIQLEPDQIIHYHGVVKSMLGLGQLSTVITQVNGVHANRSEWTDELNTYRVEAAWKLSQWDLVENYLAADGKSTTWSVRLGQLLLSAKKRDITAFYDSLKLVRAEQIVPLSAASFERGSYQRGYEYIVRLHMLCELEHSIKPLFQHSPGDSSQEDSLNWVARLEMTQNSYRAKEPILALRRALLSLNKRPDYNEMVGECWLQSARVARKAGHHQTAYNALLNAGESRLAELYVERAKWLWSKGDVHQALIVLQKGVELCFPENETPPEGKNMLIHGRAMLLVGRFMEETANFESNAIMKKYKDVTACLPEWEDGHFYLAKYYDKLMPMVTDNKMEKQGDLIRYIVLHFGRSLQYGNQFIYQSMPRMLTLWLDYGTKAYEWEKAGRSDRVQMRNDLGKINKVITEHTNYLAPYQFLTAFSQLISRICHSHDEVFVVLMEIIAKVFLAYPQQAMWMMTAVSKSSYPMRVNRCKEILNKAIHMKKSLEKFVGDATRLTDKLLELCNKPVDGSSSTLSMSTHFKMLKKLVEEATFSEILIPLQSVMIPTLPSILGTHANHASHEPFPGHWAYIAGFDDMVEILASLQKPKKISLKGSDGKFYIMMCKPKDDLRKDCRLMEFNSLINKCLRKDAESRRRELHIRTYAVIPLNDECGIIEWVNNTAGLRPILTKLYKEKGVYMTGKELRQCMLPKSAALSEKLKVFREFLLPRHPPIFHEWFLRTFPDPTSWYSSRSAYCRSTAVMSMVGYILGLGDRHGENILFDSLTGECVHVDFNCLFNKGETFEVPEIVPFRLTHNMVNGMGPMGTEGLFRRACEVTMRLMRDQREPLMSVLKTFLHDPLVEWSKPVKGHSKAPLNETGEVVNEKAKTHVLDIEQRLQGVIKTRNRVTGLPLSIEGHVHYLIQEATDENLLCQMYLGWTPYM
# T1 sequence (Q8WXE1 whole entry partner): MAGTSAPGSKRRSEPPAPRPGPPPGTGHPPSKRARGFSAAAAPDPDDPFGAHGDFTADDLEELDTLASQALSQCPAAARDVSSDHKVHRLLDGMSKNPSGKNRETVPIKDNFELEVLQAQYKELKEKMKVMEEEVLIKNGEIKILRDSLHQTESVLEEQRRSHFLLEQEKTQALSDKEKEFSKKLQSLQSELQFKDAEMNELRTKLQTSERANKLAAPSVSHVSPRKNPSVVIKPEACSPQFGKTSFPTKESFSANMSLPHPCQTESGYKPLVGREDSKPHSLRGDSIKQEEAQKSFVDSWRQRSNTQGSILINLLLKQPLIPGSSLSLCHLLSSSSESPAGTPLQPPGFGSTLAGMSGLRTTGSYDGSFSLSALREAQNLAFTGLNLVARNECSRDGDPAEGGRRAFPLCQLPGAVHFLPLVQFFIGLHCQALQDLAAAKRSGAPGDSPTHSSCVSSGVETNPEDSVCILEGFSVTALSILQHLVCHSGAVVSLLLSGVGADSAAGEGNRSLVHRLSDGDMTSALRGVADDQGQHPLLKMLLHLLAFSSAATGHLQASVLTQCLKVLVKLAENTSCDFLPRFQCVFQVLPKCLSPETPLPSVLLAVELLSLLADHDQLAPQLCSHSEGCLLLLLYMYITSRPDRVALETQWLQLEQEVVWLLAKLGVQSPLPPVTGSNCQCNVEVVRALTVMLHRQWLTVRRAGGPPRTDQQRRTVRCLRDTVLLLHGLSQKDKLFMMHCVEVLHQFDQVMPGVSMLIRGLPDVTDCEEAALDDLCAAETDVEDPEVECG
SMILES,IC50 (ATR/ATRIP; [2]),IC50 [1],IC50 (ATR/ATRIP)
"CNc1ncc2[nH]ccc2c1-c1nc2c(c(C(C)(C)S(C)(=O)=O)n1)OC[C@@H]1COC[C@@H](C)N21 [A27, {4-[(5R,8aS)-1-(1-Methanesulfonyl-1-methyl-ethyl)-5-methyl-5,6,8a,9-tetrahydro-8H-7,10-dioxa-2,4,4b-triaza-phenanthren-3-yl]-1H-pyrrolo[2,3-c]pyridin-5-yl}-methyl-amine]",< 0.001 µM,< 0.01 µM,
"C[C@@H]1COC[C@H]2COc3c(nc(-c4c(F)ncc5[nH]ccc45)nc3C(C)(C)S(C)(=O)=O)N21 [A29, (5R,8aS)-3-(5-Fluoro-1H-pyrrolo[2,3-c]pyridin-4-yl)-1-(1-methanesulfonyl-1-methyl-ethyl)-5-methyl-5,6,8a,9-tetrahydro-8H-7,10-dioxa-2,4,4b-triaza-phenanthrene]",< 0.001 µM,0.01 to 0.1 µM,
"CC(=O)Nc1nc2ccccc2n1-c1nc2c(c(C(C)(C)S(C)(=O)=O)n1)OC[C@@H]1COC[C@@H](C)N21 [A34, N-{1-[(10S,14R)-6-(2-Methanesulfonylpropan-2-yl)-14-methyl-8,12-dioxa-1,3,5-triazatricyclo[8.4.0.0^2,7]tetradeca-2,4,6-trien-4-yl]-1H-1,3-benzodiazol-2-yl}acetamide]",< 0.001 µM,0.01 to 0.1 µM,
"C[C@@H]1COC[C@H]2COc3c(nc(-c4c(N)cnc5[nH]ccc45)nc3C3(S(C)(=O)=O)CC3)N21 [A37, 4-[(10S,14R)-6-(1-methanesulfonylcyclopropyl)-14-methyl-8,12-dioxa-1,3,5-triazatricyclo[8.4.0.0^2,7]tetradeca-2,4,6-trien-4-yl]-1H-pyrrolo[2,3-b]pyridin-5-amine]",< 0.001 µM,0.1 to 1 µM,
"C[C@@H]1COC[C@H]2COc3c(nc(-c4cncc5[nH]ccc45)nc3C(C)(C)S(C)(=O)=O)N21 [A39, (5R,8aS)-1-(1-methanesulfonyl-1-methyl-ethyl)-5-methyl-3-(1H-pyrrolo[2,3-c]pyridin-4-yl)-5,6,8a,9-tetrahydro-8H-7,10-dioxa-2,4,4b-triaza-phenanthrene]",< 0.001 µM,0.01 to 0.1 µM,
"[2H]C([2H])([2H])Nc1cnc2[nH]ccc2c1-c1nc2c(c(C(C)(C)S(C)(=O)=O)n1)OC[C@@H]1COC[C@@H](C)N21 [A42, 4-[(10S,14R)-6-(2-methanesulfonylpropan-2-yl)-14-methyl-8,12-dioxa-1,3,5-triazatricyclo[8.4.0.0^2,7]tetradeca-2,4,6-trien-4-yl]-N-(^2H3)methyl-1H-pyrrolo[2,3-b]pyridin-5-amine]",0.001 to 0.01 µM,0.01 to 0.1 µM,
"C[C@@H]1COC[C@H]2COc3c(nc(-c4ccc(-c5ncc[nH]5)cc4)nc3C(C)(C)S(C)(=O)=O)N21 [A44, (10S,14R)-4-[4-(1H-imidazol-2-yl)phenyl]-6-(2-methanesulfonylpropan-2-yl)-14-methyl-8,12-dioxa-1,3,5-triazatricyclo[8.4.0.0^2,7]tetradeca-2,4,6-triene]",< 0.001 µM,0.1 to 1 µM,
"C[C@@H]1COC[C@H]2COc3c(nc(-c4ccc(CN)cc4)nc3C(C)(C)S(C)(=O)=O)N21 [A46, 4-[(5R,8aS)-1-(1-methanesulfonyl-1-methyl-ethyl)-5-methyl-5,6,8a,9-tetrahydro-8H-7,10-dioxa-2,4,4b-triaza-phenanthren-3-yl]-benzylamine]",< 0.001 µM,0.01 to 0.1 µM,
"C[C@@H]1COC[C@H]2COc3c(nc(-c4ccc(C5(CO)CN5)cc4)nc3C(C)(C)S(C)(=O)=O)N21 (stereo partly drawn) [A61, (2-{4-[(5R,8aS)-1-(1-methanesulfonyl-1-methyl-ethyl)-5-methyl-5,6,8a,9-tetrahydro-8H-7,10-dioxa-2,4,4b-triaza-phenanthren-3-yl]-phenyl}-aziridin-2-yl)-methanol]",,1 to 30 µM,0.5 to 30 µM
"C[C@@H]1COC[C@H]2COc3c(nc(-c4cccc(C5(CO)CN5)c4)nc3C(C)(C)S(C)(=O)=O)N21 (stereo partly drawn) [A63, (2-{3-[(5R,8aS)-1-(1-methanesulfonyl-1-methyl-ethyl)-5-methyl-5,6,8a,9-tetrahydro-8H-7,10-dioxa-2,4,4b-triaza-phenanthren-3-yl]-phenyl}-aziridin-2-yl)-methanol]",,1 to 30 µM,0.5 to 30 µM
"C[C@@H]1COC[C@H]2COc3c(nc(-c4cccc(C5(N)COC5)c4)nc3C(C)(C)S(C)(=O)=O)N21 [A64, 3-{3-[(5R,8aS)-1-(1-methanesulfonyl-1-methyl-ethyl)-5-methyl-5,6,8a,9-tetrahydro-8H-7,10-dioxa-2,4,4b-triaza-phenanthren-3-yl]-phenyl}-oxetan-3-ylamine]",0.5 to 30 µM,1 to 30 µM,
"C[C@@H]1COC[C@H]2COc3c(nc(-c4cc5cc(F)ncc5[nH]4)nc3C(C)(C)S(C)(=O)=O)N21 [A67, (5R,8aS)-3-(5-fluoro-1H-pyrrolo[2,3-c]pyridin-2-yl)-1-(1-methanesulfonyl-1-methyl-ethyl)-5-methyl-5,6,8a,9-tetrahydro-8H-7,10-dioxa-2,4,4b-triaza-phenanthrene]",0.01 to 0.1 µM,1 to 30 µM,
"C[C@@H]1COC[C@H]2COc3c(nc(Nc4cn[nH]n4)nc3C(C)(C)S(C)(=O)=O)N21 [A69, [(5R,8aS)-1-(1-methanesulfonyl-1-methyl-ethyl)-5-methyl-5,6,8a,9-tetrahydro-8H-7,10-dioxa-2,4,4b-triaza-phenanthren-3-yl]-(2H[1,2,3]triazol-4-yl)-amine]",0.01 to 0.1 µM,0.1 to 1 µM,
"C[C@@H]1COC[C@H]2COc3c(nc(-c4ccc5nc(N)ccc5c4)nc3C(C)(C)S(C)(=O)=O)N21 [A72, 6-[(5R,8aS)-1-(1-methanesulfonyl-1-methyl-ethyl)-5-methyl-5,6,8a,9-tetrahydro-8H-7,10-dioxa-2,4,4b-triaza-phenanthren-3-yl]-quinolin-2-ylamine]",< 0.001 µM,0.1 to 1 µM,
"C[C@@H]1COC[C@H]2COc3c(nc(Nc4ccn[nH]4)nc3C(C)(C)S(C)(=O)=O)N21 [A73, [(5R,8aS)-1-(1-methanesulfonyl-1-methyl-ethyl)-5-methyl-5,6,8a,9-tetrahydro-8H-7,10-dioxa-2,4,4b-triaza-phenanthren-3-yl]-(2H-pyrazol-3-yl)-amine]",< 0.001 µM,0.01 to 0.1 µM,
"C[C@@H]1COC[C@H]2COc3c(nc(N(C)c4ccn[nH]4)nc3C(C)(C)S(C)(=O)=O)N21 [A74, [(5R,8aS)-1-(1-methanesulfonyl-1-methylethyl)-5-methyl-5,6,8a,9-tetrahydro-8H-7,10-dioxa-2,4,4b-triaza-phenanthren-3-yl]-methyl-(2H-pyrazol-3-yl)-amine]",0.01 to 0.1 µM,0.01 to 0.1 µM,
"C[C@@H]1COC[C@H]2COc3c(nc(-c4ccc5nc(N)ncc5c4)nc3C(C)(C)S(C)(=O)=O)N21 [A78, 6-[(5R,8aS)-1-(1-methanesulfonyl-1-methyl-ethyl)-5-methyl-5,6,8a,9-tetrahydro-8H-7,10-dioxa-2,4,4b-triaza-phenanthren-3-yl]-quinazolin-2-ylamine]",0.01 to 0.1 µM,0.1 to 1 µM,
"CC(C)Nc1cnc2[nH]ccc2c1-c1nc2c(c(C(C)(C)S(C)(=O)=O)n1)OC[C@@H]1COC[C@@H](C)N21 [A81, isopropyl-{4-[(S)-1-(1-methanesulfonyl-1-methyl-ethyl)-5-(R)methyl-5,6,8a,9-tetrahydro-8H-7,10-dioxa-2,4,4b-triaza-phenanthren-3-yl]-1H-pyrrolo[2,3-b]pyridin-5-yl}-amine]",0.001 to 0.01 µM,0.1 to 1 µM,
